Laboratory results reported in patent US20210128537A1, “T-TYPE CALCIUM CHANNEL MODULATORS AND METHODS OF USE THEREOF” (Praxis Precision Medicines, inc., priority 2016, published 2021).

Key:
post-SE rats [1] = assay: Sucrose preference test in post-SE rats; type: in vivo, rat; settings: Z944 60 mg/kg/day for 4 weeks, p<0.05
Protocol: (§1) All behavioural tests were performed in a light-controlled (˜110 lux), closed, quiet and clean room in the. Behavioural testing was performed in a blinded manner to the treatment groups. All of the behavioural tests were video recorded for future analysis. OF, EPM and MWM sessions were filmed using a digital camera mounted above the centre of the arena, which was connected to a computer for the recording and objective analysis of digitized behavioural tests (EthoVision 3.0.15, Noldus). The first behavioural test was performed one week after the last EEG recording. The different behavioural tests/session were performed 24 hours apart from each other. All tests were scored by an experienced observer who was blind to the experimental conditions of the animals.
The SPT was used to assess depressive-like behaviour. The animals remained to stay in their same home cage. One hour before the start of the test, the animals were given up to 0.5 ml of the testing 2% sucrose to ensure that the animals would drink the sucrose solution. The animals were presented with two bottles, one filled with water and the other one filled with 2% sucrose in water for 24 hours. On both tests, bottle position was randomised to avoid position preference. Total fluid intake and percentage preference for sucrose were recorded.

[2] = tested on: GAERS nRT T-type Ca2+ channel currents (mixed CaV3.2/CaV3.3 current); assay: Thalamic slice whole-cell voltage-clamp recordings of nRT T-type Ca2+ channel currents; type: cell-based, rat; set-up: dose or concentration left out as unconfirmed; settings: and wash off
[3] = tested on: GAERS (genetic rat model of GGE with absence seizures); assay: Systemic administration in GAERS, EEG spike-and-wave discharges; type: in vivo; settings: 30 mg/kg intraperitoneal; shift from 8 Hz with ethosuximide 100 mg/kg and vehicle
Protocol: In vivo anti-seizure activity of Z941 and Z944 was assessed in eight female epileptic GAERS (180 to 250 g and 18 to 26 weeks). Rats were implanted with extradural recording electrodes. EEG data were acquired at a sampling rate of 256 Hz unfiltered using Compumedics ProFusion digital EEG acquisition software. After 60-min habituation, rats received intraperitoneal injections of drug, and after a further 15 min, the EEG was acquired for 120 min—the test period. […] Over a 5-week period, each rat received all treatments (crossover design) in a randomized manner with a 48-hour washout period between dosing of test compound, control vehicle, and positive control articles. […] Clinical observations of neurotoxic adverse effects were assessed every 15 min throughout the 120-min test period. These were quantified according to an ordinal scale of 0 to 4: 0, no sedation, normal movement; 1, slight sedation, slow movement but alert when startled; 2, mildly sedate, reduced struggle to restraint; 3, sedate, not moving in cage, but does respond to provocation; 4, very sedate, catatonic and unable to stand when provoked. The eight scores (taken for one experiment per rat) were then averaged, and group means were calculated for each treatment. Animals were also monitored daily for general health throughout the study period (that is, weight gain and fur condition). […]

post-SE rats [4] = assay: Morris water maze in post-SE rats; type: in vivo, rat; settings: Z944 60 mg/kg/day, levetiracetam 200 mg/kg/day for 4 weeks
Protocol: as §1
The MWM is a circular black PVC plastic pool of 160 cm diameter which is filled to a depth of either 2.5 cm above a 10 cm diameter hidden platform water at 25±1° C. The platform is located in the centre of the South-West quadrant during the first 3 sessions and changed to North-East quadrant for the remaining sessions. Visual cues are placed in the main 4 cardinal points, consisting of large black and white symbols that serve as orientation landmarks for the rats. […] The latency to find the escape platform, speed and strategic path used by the animal to locate the platform are recorded. […]

[5] = tested on: Wistar rats, amygdala kindling; assay: Progression of seizures in the amygdala kindling model; type: in vivo, rat
Protocol: Animals were implanted with EEG recording electrodes and with a stimulating bipolar electrode in the left basolateral amygdaloid nucleus using the coordinates AP±3.0 mm, ML±5.9 mm, DV±6.0 mm. The after discharge threshold (ADT) for each animal was determined by administering a stimulation (frequency=60.1 Hz; duration=1000 μs) at one minute intervals until a seizure was clicited. The amplitude of the stimulation was started at 0.02 mA with increments of 0.02 mA; the stimulations were stopped when the animal experienced a seizure of ≥6 second duration, or if the amplitude of 0.40 mA was reached without the occurrence of a seizure. […] Kindling was performed twice a day for five days per week with an endpoint of 30 stimulations or until the animal presented five class V seizures (referred to as fully kindled). The seizure severity was classified from 0 (less severe) to V (most severe) according to the Racine Scale (Racine, 1972b). Sham kindled animals were handled the same way as the kindled animals, although no electrical stimulation was applied. An animal is classified as fully kindled once it has experienced 5 class V seizures.
Testing Z944 in the progression of seizures in the amygdala kindling model Wistar rats underwent surgery to implant bipolar stimulation electrodes and EEG recording electrodes as described above. ADT was determined as described for the anti-seizure study. Animals were randomly assigned to four different cohorts; Cohort 1: kindled sham+vehicle (n=8); Cohort 2: kindled+vehicle (n=6); Cohort 3: kindled+ETX (100 mg/kg, n=6) and Cohort 4: kindled+Z944 (30 mg/kg, n=7). Thirty minutes prior each kindling stimulation, the animals received an IP injection of vehicle, ETX, or Z944 administered at a dose volume of 5 ml/kg up to an endpoint of 30 stimulations and the seizure class elicited and seizure duration was recorded. […] Adverse effects were recorded every 15 minutes from the drug administration until 90 minutes after. An investigator blinded to the drug treatment analyzed all EEG recordings. The seizure class each stimulation elicited was recorded and averaged and the duration of the primary and total seizures were recorded.

## CC(C)(C)NC(=O)CN1CCC(CNC(=O)c2cc(F)cc(Cl)c2)CC1 [Z944]
post-SE rats [1]
  sucrose preference: vehicle had a reduced sucrose preference compared to both sham groups and post-SE+Z944 group
[2]
  reversibility of inhibition of GAERS nRT T-type Ca2+ channel currents: nonreversible inhibition
[3]
  peak cycle frequency power during seizure activity (FFT): 6.5 Hz
post-SE rats [4]
  time to find the hidden platform (cognition): Improves Cognition
[5]; 30 mg/kg IP 30 min prior each stimulation, vs vehicle
  number of stimulations to evoke a class III, IV or V seizure: required significantly more stimulations
[5]; 30 mg/kg IP, n=7, up to 30 stimulations
  number of treated animals that reached the fully kindled state: one
[5]; 30 mg/kg IP, vs ETX 100 mg/kg (p<0.01)
  number of stimulations to reach class V: required more stimulations
[5]; 30 mg/kg IP, vs vehicle (p<0.01) and ETX (p<0.05)
  number of stimulations to reach the fully kindled state: required significantly more stimulations
